We go through 26 compounds from patent US20070213394A1 (priority 2004, published 2007).

Test [1] addresses T1, human kappa opioid receptor (Homo sapiens, UniProt P41145).
T1 construct: expressed in transfected cells; host or cells: Chinese hamster ovary cells (CHO-hKOR), membranes
The experiment in a line: biochemical. Format: binding.

Test [2] addresses T1, human kappa opioid receptor. Description: biochemical. The conditions noted are these: for Emax: 1 h, read-out: Efficacy.
Test [3] has as its system rats. Description: Forced swim test (FST). In kind it is in vivo, rat. The conditions noted are these: FIG. 3A.
Test [4] relates to rats. Description: Locomotor activity test. The conditions noted are these: FIG. 3B. In kind it is in vivo, rat.
In test [5] the test system is rats. Description: Intracranial self-stimulation (ICSS), lateral hypothalamic brain stimulation. Format: in vivo, rat. The conditions noted are these: 1.0 mg/kg, IP, 1-hour test sessions, FIG. 4.

Where two headings read alike, the source gives them in different places.

T1 sequence (P41145 whole entry): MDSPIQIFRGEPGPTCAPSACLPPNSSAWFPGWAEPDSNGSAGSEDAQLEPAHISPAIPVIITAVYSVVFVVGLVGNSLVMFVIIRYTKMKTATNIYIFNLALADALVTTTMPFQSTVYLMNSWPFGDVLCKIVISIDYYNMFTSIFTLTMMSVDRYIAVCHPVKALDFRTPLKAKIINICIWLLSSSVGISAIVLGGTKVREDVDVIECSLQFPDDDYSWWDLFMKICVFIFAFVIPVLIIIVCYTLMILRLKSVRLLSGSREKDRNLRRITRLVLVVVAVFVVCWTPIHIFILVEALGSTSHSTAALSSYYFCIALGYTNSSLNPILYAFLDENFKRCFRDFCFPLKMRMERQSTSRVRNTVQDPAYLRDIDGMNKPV

With `CCCCO[C@H]1C[C@@H](C(=O)OC)[C@]2(C)CC[C@H]3C(=O)O[C@H](c4ccoc4)C[C@]3(C)C2C1=O` (stereo partly shown) [Compound 13, 2-n-butoxy-salvinorin B], in test [1], the inhibitory constant (Ki) was 0.0358 ± 0.0051 µM. Moreover, the midpoint of the response in test [2], the EC50, lay at 0.104 ± 0.017 µM.
“2-(N,N-dimethylamino)-salvinorin [Compound 19]”: the Ki in test [1] (read-out: Ki) was determined as 0.0909 ± 0.0025 µM. Besides, the EC50 in test [2] (read-out: EC50) was determined as 0.343 ± 0.012 µM.
Consider `COC(=O)[C@@H]1C[C@@H](N)C(=O)C2[C@@]1(C)CC[C@H]1C(=O)O[C@H](c3ccoc3)C[C@]21C` (stereo partly drawn) [Compound 207b, 2-epi-aminosalvinorin], for which the Ki in test [1] turned out to be 0.223 ± 0.123 µM. Further, in test [2], it took 1.37 ± 0.155 µM to reach a half-maximal effect (EC50) and the Emax was determined as 84%.
The compound `COC(=O)[C@@H]1C[C@H](NC(=O)NC(=O)C(Cl)(Cl)Cl)C(=O)C2[C@@]1(C)CC[C@H]1C(=O)O[C@H](c3ccoc3)C[C@]21C` (stereo partly shown) [Compound 79] had a Ki in test [1] of 0.227 ± 0.032 µM. In test [2], the EC50 came to 0.471 ± 0.11 µM and the Emax amounted to 103%.
In turn, `CC(=O)OC1CC(C(=O)N2CCCC2C(=O)OCc2ccccc2)C2(C)CCC3C(=O)OC(c4ccoc4)CC3(C)C2C1=O` (stereo not shown) [Compound 103] displayed an inhibitory constant (Ki) in test [1] of 0.21 ± 0.032 µM. In test [2], the EC50 was determined as 0.348 ± 0.026 µM and the Emax came out at 100%.
`COC(=O)[C@@H]1C[C@H](OC(=O)[C@H](C)NC(C)=O)C(=O)C2[C@@]1(C)CC[C@H]1C(=O)O[C@H](c3ccoc3)C[C@]21C` (stereo partly shown) [Compound 91] had a Ki in test [1] of 0.176 ± 0.0055 µM. For the same compound, in test [2], the EC50 amounted to 0.219 ± 0.025 µM and the Emax turned out to be 93%.
In turn, `COC(=O)[C@@H]1C[C@H](OC(C)=O)C(=O)C2[C@@]1(C)CC[C@H]1C(=O)OC(C3CCOC3)C[C@]21C` (stereo partly shown) [Compound 62] had an inhibition constant Ki in test [1] of 0.0193 µM. In test [2], a half-maximal response (EC50) required 0.0683 µM and the Emax is 117 ± 4.7%.
For `CCN[C@@H]1C[C@@H](C(=O)OC)[C@]2(C)CC[C@H]3C(=O)O[C@H](c4ccoc4)C[C@]3(C)C2C1=O` (stereo partly shown) [Compound 18, 2-(N-ethylamino)-salvinorin], the Ki in test [1] came out at 0.0289 ± 0.001 µM. For the same compound, the midpoint of the response in test [2], the EC50, lay at 0.0689 ± 0.0053 µM.
In test [1], `COC(=O)[C@@H]1C[C@H](OC(=O)CNC(=O)OCC2c3ccccc3-c3ccccc32)C(=O)C2[C@@]1(C)CC[C@H]1C(=O)O[C@H](c3ccoc3)C[C@]21C` (stereo partly shown) [Compound 21] showed a Ki greater than 0.277 µM. The EC50 in test [2] was greater than 4.12 µM.
As to `COC(=O)[C@@H]1C[C@H](OC(C)=O)C(=O)C2[C@@]1(C)CC[C@H]1C(=O)O[C@H](c3ccoc3)C[C@]21C` (stereo partly shown) [salvinorin A], the “effect in the forced swim test” value in the test on rats [3] was “depressive-like effects”. In addition, in the test on rats [4], the “effect on locomotor activity” value is on record as “without affecting locomotor activity”. Besides, the ICSS thresholds result in the test on rats [5] is recorded as “significantly elevated ICSS thresholds”.
Take `COC(=O)C1CC(N(C)C)C(=O)C2C1(C)CCC1C(=O)OC(c3ccoc3)CC12C` (stereo not shown) [Compound 211a, 2-(N,N-dimethyl)-salvinorin]: the Ki in test [1] was found to be 0.168 ± 0.01 µM. In test [2], the EC50 worked out at 0.24 ± 0.023 µM and the Emax was 110%.
In the case of `COC(=O)C1CC(NC(C)=O)C(=O)C2C1(C)CCC1C(=O)OC(c3ccoc3)CC12C` (stereo not shown) [Compound 212a, 2-(acetamide)-salvinorin], the Ki in test [1] worked out at 0.149 ± 0.001 µM. Further, the EC50 in test [2] amounted to 0.188 ± 0.002 µM.
The compound `COC(=O)[C@@H]1C[C@H](OCc2ccccc2)C(=O)C2[C@@]1(C)CC[C@H]1C(=O)O[C@H](c3ccoc3)C[C@]21C` (stereo partly shown) [Compound 17, 2-benzyloxy-salvinorin B] came in with a Ki in test [1] of 0.0757 ± 0.0059 µM. A half-maximal effect in test [2] (EC50) was put at 0.161 ± 0.014 µM.
Compound `CCCO[C@H]1C[C@@H](C(=O)OC)[C@]2(C)CC[C@H]3C(=O)O[C@H](c4ccoc4)C[C@]3(C)C2C1=O` (stereo partly shown) [Compound 16, 2-propoxy-salvinorin B] displayed an inhibition constant (Ki) in test [1] of 0.0287 ± 0.003 µM. Also, in test [2], the EC50 is 0.0674 ± 0.0099 µM and the Emax amounted to 100%.
With `COC(=O)C1=CC(=O)C=C2[C@@]1(C)CC[C@H]1C(=O)O[C@H](c3ccoc3)C[C@]21C` [Compound 70], the Ki in test [1] is greater than 0.616 µM. Moreover, the EC50 in test [2] was greater than 5.15 µM.
As for `CNC(=O)O[C@H]1C[C@@H](C(=O)OC)[C@]2(C)CC[C@H]3C(=O)O[C@H](c4ccoc4)C[C@]3(C)C2C1=O` (stereo partly shown) [Compound 10, 2-(O—(N-methyl)formamide)-salvinorin B], in test [1], the Ki is 0.083 ± 0.009 µM. For the same compound, in test [2], the EC50 stood at 0.201 ± 0.01 µM and the Emax was determined as 81%.
The compound `COC(=O)[C@@H]1C[C@H](OC(=O)Nc2ccccc2)C(=O)C2[C@@]1(C)CC[C@H]1C(=O)O[C@H](c3ccoc3)C[C@]21C` (stereo partly shown) [Compound 86] had a Ki in test [1] of 0.282 ± 0.013 µM. Moreover, in test [2], the EC50 stood at 0.197 ± 0.039 µM and the Emax is 93%.
`CCC(=O)O[C@H]1C[C@@H](C(=O)OC)[C@]2(C)CC[C@H]3C(=O)O[C@H](c4ccoc4)C[C@]3(C)C2C1=O` (stereo partly shown) [Compound 2, 2-propionyl-salvinorin B] yielded a Ki in test [1] of 0.0072 ± 0.0005 µM. Moreover, in test [2], it took 0.0204 ± 0.0034 µM to reach a half-maximal effect (EC50) and the Emax worked out at 94%.
Consider `CNC1CC(C(=O)OC)C2(C)CCC3C(=O)OC(c4ccoc4)CC3(C)C2C1=O` (stereo not shown) [Compound 208a, 2-(N-methyl)-salvinorin], for which the Ki in test [1] was found to be 0.328 ± 0.04 µM. Moreover, in test [2], the EC50 came to 0.825 ± 0.093 µM and the Emax is 82%.
Take `CCNC1CC(C(=O)OC)C2(C)CCC3C(=O)OC(c4ccoc4)CC3(C)C2C1=O` (stereo not shown) [Compound 209a, 2-(N-ethyl)-salvinorin]: the Ki in test [1] was 0.065 ± 0.024 µM. For the same compound, the EC50 in test [2] amounted to 0.0728 ± 0.004 µM.
The compound `CCNC(=O)O[C@H]1C[C@@H](C(=O)OC)[C@]2(C)CC[C@H]3C(=O)O[C@H](c4ccoc4)C[C@]3(C)C2C1=O` (stereo partly shown) [Compound 20, 2-(O—(N-ethyl)formamide)-salvinorin B] yielded a Ki in test [1] of 0.462 ± 0.02 µM. Further, in test [2], the concentration for a half-maximal effect (EC50) is greater than 1 µM.
Compound `CC(=O)OC1CC(C(=O)NC(C)C(=O)OCc2ccccc2)C2(C)CCC3C(=O)OC(c4ccoc4)CC3(C)C2C1=O` (stereo not shown) [Compound 98] came in with an inhibition constant (Ki) in test [1] of 0.0142 ± 0.0008 µM. Further, in test [2], the response was half-maximal at 0.0467 ± 0.0073 µM (EC50) and the Emax was 95%.
`COC(=O)[C@@H]1C[C@@H](NC(C)C)C(=O)C2[C@@]1(C)CC[C@H]1C(=O)O[C@H](c3ccoc3)C[C@]21C` (stereo partly drawn) [Compound 75, 2-epi-(N-isopropyl)-salvinorin] yielded a Ki in test [1] of 0.0023 ± 0.0006 µM. In test [2], this compound displayed an EC50 of 0.0072 ± 0.0003 µM.
`CCOC(=O)C1CC(OC(C)=O)C(=O)C2C1(C)CCC1C(=O)OC(c3ccoc3)CC12C` (stereo not shown) [Compound 34] came in with a Ki in test [1] of 0.365 ± 0.026 µM. In test [2], a half-maximal response (EC50) required 0.0944 ± 0.0041 µM and the Emax worked out at 110 ± 6.4%.
On to `CC(=O)O[C@H]1C[C@@H](C(=O)O)[C@]2(C)CC[C@H]3C(=O)O[C@H](c4ccoc4)C[C@]3(C)C2C1=O` (stereo partly shown) [Compound 32, demethyl Salvinorin], for which the inhibitory constant (Ki) in test [1] is greater than 0.115 µM. Besides, the EC50 in test [2] was greater than 1.23 µM.
`C#CCCCCOC(=O)C1CC(OC(C)=O)C(=O)C2C1(C)CCC1C(=O)OC(c3ccoc3)CC12C` (stereo not shown) [Compound 51]: affinity in test [1] was put at a Ki of 0.679 ± 0.112 µM. In test [2], the EC50 worked out at 0.224 ± 0.004 µM and the Emax was found to be 104 ± 16.5%.
